What was measured:
Type in all cases: in vivo
[1] = tested on: Lolium multiflorum (LOLMU); assay: greenhouse post-emergence herbicidal efficacy against LOLMU
Procedure: (§1) All trials whose results are shown were conducted in a greenhouse by the methodology specified below. The effect of the inventive herbicidal compositions was examined on the following harmful plants 14 and 21 days after application:
(§2) Echinochloa crus-galli (ECHCG), Eleusine indica (ELEIN), Setaria viridis (SETVI), Amaranthus retroflexus (AMARE), Chenopodium album (CHEAL), Kochia scoparia (KCHSC), Solanum nigrum (SOLNI), Avena fatua (AVEFA), Bromus sterilis (BROST), Lolium multiflorum (LOLMU), Phalaris minor (PHAMI), Poa annua (POAAN), Galium aparine (GALAP), Matricaria inodora (MATIN) and Polygonum convolvulus (POLCO).
(§3) The harmful plant seeds were sown in pots (diameter 8 cm) with sandy loam soil and germinated under optimal conditions. The inventive herbicidal compositions or the active ingredients alone were applied post-emergence to the planted pots with a spray volume of 300 L/ha. The trial was conducted in a greenhouse under optimum growth conditions. The herbicidal effects were assessed visually by comparison of untreated and treated plants. The percentages mean: 0%=no effects, 100%=the plants die off completely).
(§4) The abbreviations mean: • a.i.=active ingredient • E^C=expected value according to Colby (E^C=A+B−A×B/100) • Diff: =difference (%) of measured value from expected value (%) (measured value minus expected value)
(§5) Assessment: • measured value E is greater than E^C:->synergism (+ diff.) • measured value E equals E^C:->additive effect • measured value E is smaller than E^C:->antagonism(− diff.)

[2] = tested on: Matricaria inodora (MATIN); assay: greenhouse post-emergence herbicidal efficacy against MATIN
Procedure: as §1, §2, §3, §4, §5

Bromus sterilis (BROST) = assay: greenhouse post-emergence herbicidal efficacy against BROST
Procedure: as §1, §2, §3, §4, §5

[3] = tested on: Polygonum convolvulus (POLCO); assay: greenhouse post-emergence herbicidal efficacy against POLCO
Procedure: as §1, §2, §3, §4, §5

Galium aparine (GALAP) = assay: greenhouse post-emergence herbicidal efficacy against GALAP
Procedure: as §1, §2, §3, §4, §5

Avena fatua (AVEFA) = assay: greenhouse post-emergence herbicidal efficacy against AVEFA
Procedure: as §1, §2, §3, §4, §5

Poa annua (POAAN) = assay: greenhouse post-emergence herbicidal efficacy against POAAN
Procedure: as §1, §2, §3, §4, §5

Phalaris minor (PHAMI) = assay: greenhouse post-emergence herbicidal efficacy against PHAMI
Procedure: as §1, §2, §3, §4, §5

[4] = 14 days after application, g of a.i./ha: A1-57 12.5, aclonifen 800
[5] = 14 days after application, g of a.i./ha: A1-57 50, aclonifen 800
[6] = 14 days after application, g of a.i./ha: A1-57 12.5, aclonifen 200
[7] = 21 days after application, g of a.i./ha: A1-57 50, aclonifen 800
[8] = 21 days after application, g of a.i./ha: A1-57 12.5, aclonifen 800
[9] = 21 days after application, g of a.i./ha: A1-57 12.5, aclonifen 200
[10] = 14 days after application, g of a.i./ha: A1-57 50, aclonifen 200
[11] = 14 days after application, 25 g of a.i./ha
[12] = 14 days after application, 100 g of a.i./ha
[13] = 21 days after application, g of a.i./ha: A1-55 2.5, glufosinate-ammonium 100
[14] = 21 days after application, g of a.i./ha: A1-55 10, glufosinate-ammonium 100
[15] = 21 days after application, g of a.i./ha: A1-55 2.5, glufosinate-ammonium 25
[16] = 21 days after application, g of a.i./ha: A1-55 10, glufosinate-ammonium 25
[17] = 14 days after application, 0.5 g of a.i./ha
[18] = 14 days after application, 2 g of a.i./ha
[19] = 21 days after application, g of a.i./ha: A1-34 50, iodosulfuron-methyl-sodium 0.5
[20] = 21 days after application, g of a.i./ha: A1-34 50, iodosulfuron-methyl-sodium 2
[21] = 21 days after application, g of a.i./ha: A1-34 200, iodosulfuron-methyl-sodium 2

Nc1c([N+](=O)[O-])ccc(Oc2ccccc2)c1Cl [aclonifen]
Efficacy [1, 4]: 0%
Efficacy [1, 5]: 0%
Efficacy [2, 6]: 0%
Efficacy [2, 4]: 0%
Efficacy [2, 5]: 0%
Efficacy [2, 7]: 0%
Efficacy (Bromus sterilis (BROST); [6]): 0%
Efficacy (Bromus sterilis (BROST); [4]): 0%
Efficacy (Bromus sterilis (BROST); [5]): 0%
Efficacy (Bromus sterilis (BROST); [8]): 0%
Efficacy (Bromus sterilis (BROST); [7]): 0%
Efficacy [3, 6]: 0%
Efficacy [3, 4]: 10%
Efficacy [3, 9]: 0%
Efficacy (Galium aparine (GALAP); [6]): 20%
Efficacy (Galium aparine (GALAP); [10]): 20%
Efficacy (Galium aparine (GALAP); [7]): 20%
Efficacy (Avena fatua (AVEFA); 14 days after application, 200 g of a.i./ha): 0%
Efficacy (Avena fatua (AVEFA); 14 days after application, 800 g of a.i./ha): 0%
Efficacy (Avena fatua (AVEFA); [6]): 0%
Efficacy (Avena fatua (AVEFA); [8]): 0%
Efficacy (Poa annua (POAAN); [6]): 0%
Efficacy (Poa annua (POAAN); [4]): 30%
Efficacy (Poa annua (POAAN); [10]): 0%
Efficacy (Poa annua (POAAN); [5]): 30%
Efficacy (Poa annua (POAAN); [8]): 10%
Efficacy (Poa annua (POAAN); 21 days after application, g of a.i./ha: A1-57 50, aclonifen 200): 0%
Efficacy (Poa annua (POAAN); [7]): 10%
Efficacy (Phalaris minor (PHAMI); [6]): 0%
Efficacy (Phalaris minor (PHAMI); [4]): 40%
Efficacy (Phalaris minor (PHAMI); [10]): 0%
Efficacy (Phalaris minor (PHAMI); [9]): 0%
Efficacy (Phalaris minor (PHAMI); [8]): 15%

CP(=O)(O)CCC(N)C(=O)O (stereo not shown) [glufosinate-ammonium]
Efficacy [1, 11]: 0%
Efficacy [1, 12]: 25%
Efficacy [1, 13]: 15%
Efficacy [1, 14]: 15%
Efficacy [2, 11]: 0%
Efficacy [2, 12]: 30%
Efficacy [2, 15]: 0%
Efficacy [2, 13]: 15%
Efficacy [2, 16]: 0%
Efficacy [2, 14]: 15%
Efficacy (Bromus sterilis (BROST); [12]): 15%
Efficacy (Bromus sterilis (BROST); [13]): 15%
Efficacy (Bromus sterilis (BROST); [16]): 0%
Efficacy [3, 11]: 0%
Efficacy [3, 12]: 25%
Efficacy [3, 16]: 0%
Efficacy [3, 14]: 5%
Efficacy (Galium aparine (GALAP); [11]): 0%
Efficacy (Galium aparine (GALAP); [16]): 0%
Efficacy (Avena fatua (AVEFA); [11]): 0%
Efficacy (Avena fatua (AVEFA); [12]): 25%
Efficacy (Avena fatua (AVEFA); [13]): 20%
Efficacy (Avena fatua (AVEFA); [14]): 20%
Efficacy (Poa annua (POAAN); [12]): 0%
Efficacy (Poa annua (POAAN); [13]): 5%
Efficacy (Poa annua (POAAN); [14]): 5%
Efficacy (Phalaris minor (PHAMI); [11]): 0%
Efficacy (Phalaris minor (PHAMI); [12]): 15%
Efficacy (Phalaris minor (PHAMI); [15]): 0%
Efficacy (Phalaris minor (PHAMI); [13]): 10%
Efficacy (Phalaris minor (PHAMI); [16]): 0%
Efficacy (Phalaris minor (PHAMI); [14]): 10%

COC(=O)c1ccc(I)cc1S(=O)(=O)[N-]C(=O)Nc1nc(C)nc(OC)n1.[Na+] [iodosulfuron-methyl-sodium]
Efficacy [1, 17]: 0%
Efficacy [1, 18]: 30%
Efficacy [2, 19]: 70%
Efficacy (Bromus sterilis (BROST); [18]): 15%
Efficacy (Bromus sterilis (BROST); [20]): 0%
Efficacy (Bromus sterilis (BROST); [21]): 0%
Efficacy [3, 17]: 15%
Efficacy [3, 18]: 30%
Efficacy [3, 19]: 0%
Efficacy [3, 20]: 0%
Efficacy (Galium aparine (GALAP); [17]): 30%
Efficacy (Galium aparine (GALAP); [19]): 0%
Efficacy (Galium aparine (GALAP); [21]): 25%
Efficacy (Avena fatua (AVEFA); [21]): 5%
Efficacy (Poa annua (POAAN); [17]): 0%
Efficacy (Poa annua (POAAN); [18]): 20%
Efficacy (Phalaris minor (PHAMI); [17]): 10%
